Type in all cases: biochemical
The target in one assay is Pim-1 (Homo sapiens (Human), UniProt P11309). In words: Pim-1 kinase assay. The following applies: 1 mM ATP; read-out: Pim1 IC50. As to the method:
Supplementation of the STOP buffer with beads and stopping the reactions were done under reduced light. Prior to the stopping reactions STOP buffer with beads was preincubated for 1 h in the dark at room temperature. After stopping the reactions, plates were incubated for 1 h in the dark at room temperature before reading on a PHERAstar FS plate reader (BMG Labtech) under reduced light.

Another assay has as its target Pim-3 (Homo sapiens (Human), UniProt Q86V86). In words: Pim-3 kinase assay. The following applies: 1 mM ATP; read-out: Pim3 IC50. The method, boiled down: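 Human Pim-3 at 1.25 pM phosphorylated […] biotin-BAD peptide with 1 mM ATP for 1 h at 25° C, in pH 7.5 Tris buffer with 5 mM MgCl2 and 5 mM DTT. Reactions were stopped with EDTA buffer containing phospho-Bad (Ser112) antibody and AlphaScreen donor/acceptor beads. Plates were read after 1 h dark incubation at room temperature.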

For the next assay, the target named is Pim-2 (Homo sapiens (Human), UniProt Q9P1W9). Kind of assay: Pim-2 kinase assay. To be noted: 1 mM ATP; read-out: Pim2 IC50. The method, boiled down: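 Pim-2 (1 nM) with fluorescein-CREBtide ([…]) and 1 mM ATP in Tris pH 7.5, MgCl2, DTT buffer, 2 h at 25 °C. Stopped with EDTA plus Tb-anti-CREB pSer133 antibody; phosphorylation read by TR-FRET after 30 min.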
Sequence of Pim-2 (Q9P1W9 whole entry): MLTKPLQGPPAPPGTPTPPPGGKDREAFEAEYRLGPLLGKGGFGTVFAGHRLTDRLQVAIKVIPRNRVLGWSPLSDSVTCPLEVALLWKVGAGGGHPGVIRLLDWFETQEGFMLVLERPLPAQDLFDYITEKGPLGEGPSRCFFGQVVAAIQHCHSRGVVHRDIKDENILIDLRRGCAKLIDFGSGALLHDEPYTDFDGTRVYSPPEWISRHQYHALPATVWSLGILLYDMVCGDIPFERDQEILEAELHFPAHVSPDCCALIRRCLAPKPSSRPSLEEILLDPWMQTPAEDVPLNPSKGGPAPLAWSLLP

Sequence of Pim-1 (P11309 whole entry): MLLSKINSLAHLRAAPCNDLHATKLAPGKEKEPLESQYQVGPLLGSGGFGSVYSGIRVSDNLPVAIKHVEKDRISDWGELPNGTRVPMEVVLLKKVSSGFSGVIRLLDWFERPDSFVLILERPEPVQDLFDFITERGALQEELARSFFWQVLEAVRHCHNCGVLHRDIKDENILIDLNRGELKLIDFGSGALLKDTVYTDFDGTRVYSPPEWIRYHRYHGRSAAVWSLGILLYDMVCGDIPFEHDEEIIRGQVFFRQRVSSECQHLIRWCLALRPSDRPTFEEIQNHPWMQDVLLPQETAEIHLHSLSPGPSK

The term IC50 denotes the point on the concentration scale where inhibition reaches its midpoint. As to `C[C@H]1CN(c2ccncc2NCc2ccc(F)c(-c3c(F)cc(C(C)(C)O)cc3F)n2)C[C@@H](N)[C@@H]1O` [Example 106, (3R,4R,5S)-3-Amino-1-{3-[({6-[2,6-difluoro-4-(1-hydroxy-1-methylethyl)phenyl]-5-fluoropyridin-2-yl}methyl)amino]pyridin-4-yl}-5-methylpiperidin-4-ol], the results for the IC50 on Pim-1, at Pim-3 and on Pim-2 were less than 10 nM, not above 10 nM and not above 100 nM, respectively.

Regarding `C[C@@H]1C[C@H](N)CN(c2ccncc2NCc2ccc(F)c(-c3c(F)cc(C4(F)CCOCC4)cc3F)n2)C1` [Example 62, 4-[(3S,5R)-3-Amino-5-methylpiperidin-1-yl]-N-({6-[2,6-difluoro-4-(4-fluorotetrahydro-2H-pyran-4-yl)phenyl]-5-fluoropyridin-2-yl}methyl)pyridin-3-amine], the IC50 was less than 10 nM at Pim-1, not above 10 nM at Pim-3 and not above 100 nM at Pim-2.

On to `C[C@@H]1C[C@H](N)CN(c2ccncc2NCc2ccc(F)c(-c3c(F)cc(CN4CC[C@@H](F)C4)cc3F)n2)C1` [Example 55, 4-((3S,5R)-3-amino-5-methylpiperidin-1-yl)-N-((6-(2,6-difluoro-4-(((R)-3-fluoropyrrolidin-1-yl)methyl)phenyl)-5-fluoropyridin-2-yl)methyl)pyridin-3-amine], for which the IC50 at Pim-1 was less than 10 nM; on Pim-3, not above 10 nM; on Pim-2, not above 100 nM.

Turning to `C[C@H]1CN(c2ccncc2NCc2ccc(F)c(-c3c(F)cc(C(C)(C)C#N)cc3F)n2)C[C@@H](N)[C@@H]1O` [Example 24, 2-(4-{6-[({4-[(3R,4R,5S)-3-Amino-4-hydroxy-5-methylpiperidin-1-yl]pyridin-3-yl}amino)methyl]-3-fluoropyridin-2-yl}-3,5-difluorophenyl)-2-methylpropanenitrile], the values for the IC50 at Pim-1, on Pim-3 and on Pim-2 were less than 10 nM, not above 10 nM and not above 100 nM, respectively.

As to `C[C@H]1CN(c2ccncc2NCc2ccc(F)c(-c3c(F)cc(O[C@@H]4CCOC4)cc3F)n2)C[C@@H](N)[C@@H]1O` [Example 73, (3R,4R,5S)-3-Amino-1-(3-{[(6-{2,6-difluoro-4-[(3R)-tetrahydrofuran-3-yloxy]phenyl}-5-fluoropyridin-2-yl)methyl]amino}pyridin-4-yl)-5-methylpiperidin-4-ol], the IC50 at Pim-1 was less than 10 nM; on Pim-3, not above 10 nM; at Pim-2 it was not above 100 nM.

On to `C[C@@H]1C[C@H](N)CN(c2ccncc2NCc2ccnc(-c3c(F)cccc3F)n2)C1` [Example 31, 4-[(3S,5R)-3-Amino-5-methylpiperidin-1-yl]-N-{[2-(2,6-difluorophenyl)pyrimidin-4-yl]methyl}pyridin-3-amine], for which the IC50 at Pim-1 is less than 10 nM; at Pim-3 it was 10 to 50 nM; on Pim-2 it was 1000 to 10000 nM.

Consider `C[C@@H]1C[C@H](N)CN(c2ccncc2NCc2ccc(F)c(-c3c(F)cc(CN4CCC4)cc3F)n2)C1` [Example 50, 4-((3S,5R)-3-Amino-5-methylpiperidin-1-yl)-N-((6-(4-(azetidin-1-ylmethyl)-2,6-difluorophenyl)-5-fluoropyridin-2-yl)methyl)pyridin-3-amine], for which the IC50 was less than 10 nM on Pim-1, not above 10 nM on Pim-3 and 100 to 1000 nM at Pim-2.

Turning to `C[C@H]1CN(c2ccncc2NCc2ccc(F)c(-c3c(F)cc(C4(O)CCOC4)cc3F)n2)C[C@@H](N)[C@@H]1O` (stereo partly drawn) [Example 1, (3R,4R,5S)-3-Amino-1-{3-[({6-[2,6-difluoro-4-(3-hydroxytetrahydrofuran-3-yl)phenyl]-5-fluoropyridin-2-yl}methyl)amino]pyridin-4-yl}-5-methylpiperidin-4-ol], the IC50 at Pim-1 was less than 10 nM; at Pim-3, not above 10 nM; on Pim-2, not above 100 nM.
